Results: PubChem BioAssay AID1963836 (Molecular Pharmacology Branch, DTP, NCI, 2024)

System: 857933-349-R-J2-PDC complex spheroid viability
Assay: Anticancer human tumor 857933-349-R-J2-PDC patient-derived colon adenocarcinoma cell line growth inhibition [POLQ]
Details: for IC50: curve of first compound; for viability, T/C: stronger effect = lower value
Protocol: Multicellular complex tumor spheroid response to Polymerase (POL) inhibitors (novobiocin, ART-558, RP6685) in combination with a variety of drugs and investigational agents in selected tumor cell lines
The POL inhibitors (novobiocin, ART-558, and RP6685) were evaluated both individually and in combination with standard of care and investigational anticancer small molecules within a complex spheroid model of solid tumors. . Complex spheroids include a stromal component modeled by human endothelial cells (HUVEC) and fibroblasts modeled by human mesenchymal stem cells (MSCs). The concentration ranges selected for each drug and investigational agent were based upon clinically achievable concentrations if the clinical Cmax of the agent was known.
Compounds. The drugs and investigational agents: novobiocin (NSC847541), ART-558 (NSC835418), RP-6685 (NSC848927), peposertib (NSC802822), ceralasertib (NSC780249), elimusertib (NSC800525), camonsertib (NSC841442), AZD-1390 (NSC803789), olaparib (NSC753686), talazoparib (NSC767125), rucaparib (NSC756644), sotorasib (NSC818433), MRTX-1133 (NSC836407), SN-38 (NSC673596), topotecan (NSC609699), epotoside (NSC141540), doxorubicin (NSC123127), gemcitabine (NSC613327), 5-fluorouracil (NSC19893), paclitaxel (NSC125973), vemurafenib (NSC761431), MSA-2 (NSC828583), SN-011 (NSC837082), adavosertib (NSC754352), prexasertib (NSC758257), carboplatin (NSC241240) and oxaliplatin (NSC266046), were obtained from the National Cancer Institute (NCI) Developmental Therapeutics Program Chemical Repository (21). The FDA-approved anticancer drug set is available from the Developmental Therapeutics Program at https://dtp.cancer.gov/organization/dscb/obtaining/. […] The stock solutions were prepared in dimethyl sulfoxide (DMSO, Sigma-Aldrich, St. Louis, MO, cat. D2650), except for the platinum compounds which were prepared in saline (Quality Biological, Gaithersburg, MD, cat. 114-055-101), at 800-fold the tested concentration and stored at -70 degrees C prior to their use. All drugs and investigational agents were tested over a range starting from a high concentration at or near the clinical Cmax and decreasing in half-log increments. If the clinical Cmax for an agent had not been determined, the highest concentration tested was 10 microM, except for SN-38, which was tested at a high concentration of 1 microM.
Cell Culture. All cells were maintained in an incubator at 37 degrees C and 5% CO2 with 95% humidity. The PDC lines were cultured according to standard operating procedures established by the NCI PDMR (https://pdmr.cancer.gov). Table 3 of the manuscript, lists the cell lines along with the number of the three cell types plated to form the mct-spheroids and media for tumor cell growth. After thawing, all PDC lines, except 997537-175-T-J1-PDC and 415267-285-R-J2-PDC, were cultured in Matrigel-coated flasks prepared with a working solution of 1X Ham's F-12 nutrient mix, without supplementation (Thermo Fisher Scientific, cat. 11765054), 100 U/mL penicillin-streptomycin (Thermo Fisher Scientific, cat. 15140122), and 2.5% Matrigel (Corning Inc., Corning, NY, cat. 354248) for the first three passages. The two PDC lines 997537-175-T-J1-PDC and 415267-285-R-J2-PDC were cultured on uncoated flasks. The 857933-349-R-J2-PDC line was cultured in 6C/Colon 1B media containing advanced DMEM/F-12 (Thermo Fisher Scientific, cat. 12634028), 10 mM HEPES (Thermo Fisher Scientific, cat. 15630080), 1X GlutaMAX supplement (Thermo Fisher Scientific, cat. 35050061), 0.1 mg/mL primocin (InvivoGen, San Diego, CA, cat. ant-pm-2), 10% defined fetal bovine serum, heat inactivated (HyClone Laboratories Inc., Logan, UT, cat. SH30070.03HI), 50% L-WRN conditioned media (ATCC, cat. CRL-3276), 1.25 mM N-Acetyl-L-cysteine (Sigma-Aldrich, cat. A9165), 10 mM nicotinamide (Sigma-Aldrich, cat. N0636), 1X B-27 supplement (Thermo Fisher Scientific, cat. 17504044), 1X N-2 supplement (Thermo Fisher Scientific, cat. […]

[1] = second compound 0.0316 µM, first compound 0.0316 µM
[2] = second compound 0.0316 µM, first compound 0.1 µM
[3] = second compound 0.0316 µM, first compound 0.316 µM
[4] = second compound 0.0316 µM, first compound 1 µM
[5] = second compound 0.1 µM, first compound 0.0316 µM
[6] = second compound 0.1 µM, first compound 0.1 µM
[7] = second compound 0.1 µM, first compound 0.316 µM
[8] = second compound 0.1 µM, first compound 1 µM
[9] = second compound 0.316 µM, first compound 0.0316 µM
[10] = second compound 0.316 µM, first compound 0.1 µM
[11] = second compound 0.316 µM, first compound 0.316 µM
[12] = second compound 0.316 µM, first compound 1 µM
[13] = second compound 1 µM, first compound 0.0316 µM
[14] = second compound 1 µM, first compound 0.1 µM
[15] = second compound 1 µM, first compound 0.316 µM
[16] = second compound 1 µM, first compound 1 µM
[17] = second compound 3.16 µM, first compound 0.0316 µM
[18] = second compound 3.16 µM, first compound 0.1 µM
[19] = second compound 3.16 µM, first compound 0.316 µM
[20] = second compound 3.16 µM, first compound 1 µM
[21] = second compound 10 µM, first compound 0.0316 µM
[22] = second compound 10 µM, first compound 0.1 µM
[23] = second compound 10 µM, first compound 0.316 µM
[24] = second compound 10 µM, first compound 1 µM
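Note: spheroids exposed to compounds for seven days before readout.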

SMILES: C=CCn1c(=O)c2cnc(Nc3ccc(N4CCN(C)CC4)cc3)nc2n1-c1cccc(C(C)(C)O)n1 + Nc1ccc(C#CCN(C(=O)Cc2ncc(C(F)(F)F)cc2C(F)(F)F)c2ccc(F)cc2)nn1
- IC50 (second compound 0.0316 µM): > 1 µM
- IC50 (second compound 0.1 µM): > 1 µM
- IC50 (second compound 0.316 µM): > 1 µM
- IC50 (second compound 1 µM): > 1 µM
- IC50 (second compound 3.16 µM): > 1 µM
- IC50 (second compound 10 µM): > 1 µM
- viability, T/C (second compound 0.0316 µM, first compound 0.00316 µM): 105%
- viability, T/C (second compound 0.0316 µM, first compound 0.01 µM): 98.7%
- viability, T/C [1]: 91.4%
- viability, T/C [2]: 105%
- viability, T/C [3]: 88.8%
- viability, T/C [4]: 74.7%
- viability, T/C (second compound 0.1 µM, first compound 0.00316 µM): 105%
- viability, T/C (second compound 0.1 µM, first compound 0.01 µM): 122%
- viability, T/C [5]: 95.4%
- viability, T/C [6]: 91.9%
- viability, T/C [7]: 88.1%
- viability, T/C [8]: 73.8%
- viability, T/C (second compound 0.316 µM, first compound 0.00316 µM): 60.7%
- viability, T/C (second compound 0.316 µM, first compound 0.01 µM): 95.8%
- viability, T/C [9]: 94%
- viability, T/C [10]: 88.7%
- viability, T/C [11]: 103%
- viability, T/C [12]: 75.4%
- viability, T/C (second compound 1 µM, first compound 0.00316 µM): 96.5%
- viability, T/C (second compound 1 µM, first compound 0.01 µM): 93.6%
- viability, T/C [13]: 90.6%
- viability, T/C [14]: 106%
- viability, T/C [15]: 102%
- viability, T/C [16]: 74.4%
- viability, T/C (second compound 3.16 µM, first compound 0.00316 µM): 102%
- viability, T/C (second compound 3.16 µM, first compound 0.01 µM): 93.2%
- viability, T/C [17]: 74.9%
- viability, T/C [18]: 101%
- viability, T/C [19]: 68.8%
- viability, T/C [20]: 75.9%
- viability, T/C (second compound 10 µM, first compound 0.00316 µM): 113%
- viability, T/C (second compound 10 µM, first compound 0.01 µM): 106%
- viability, T/C [21]: 94%
- viability, T/C [22]: 78.7%
- viability, T/C [23]: 85.9%
- viability, T/C [24]: 66.5%

SMILES: COc1ccc([C@@H](O)c2cc(-c3ncnc4cc(N5CCOCC5)ccc34)c(F)cc2Cl)nn1 + Nc1ccc(C#CCN(C(=O)Cc2ncc(C(F)(F)F)cc2C(F)(F)F)c2ccc(F)cc2)nn1
- IC50 (second compound 0.0316 µM): > 10 µM
- IC50 (second compound 0.1 µM): > 10 µM
- IC50 (second compound 0.316 µM): 9.69 µM
- IC50 (second compound 1 µM): > 10 µM
- IC50 (second compound 3.16 µM): > 10 µM
- IC50 (second compound 10 µM): > 10 µM
- viability, T/C [1]: 86.3%
- viability, T/C [2]: 104%
- viability, T/C [3]: 103%
- viability, T/C [4]: 92.6%
- viability, T/C (second compound 0.0316 µM, first compound 3.16 µM): 77.2%
- viability, T/C (second compound 0.0316 µM, first compound 10 µM): 56.2%
- viability, T/C [5]: 91.4%
- viability, T/C [6]: 100%
- viability, T/C [7]: 96.8%
- viability, T/C [8]: 84.3%
- viability, T/C (second compound 0.1 µM, first compound 3.16 µM): 78.6%
- viability, T/C (second compound 0.1 µM, first compound 10 µM): 60.8%
- viability, T/C [9]: 84.6%
- viability, T/C [10]: 91.2%
- viability, T/C [11]: 81.2%
- viability, T/C [12]: 94.7%
- viability, T/C (second compound 0.316 µM, first compound 3.16 µM): 80.7%
- viability, T/C (second compound 0.316 µM, first compound 10 µM): 48.7%
- viability, T/C [13]: 96.8%
- viability, T/C [14]: 89.3%
- viability, T/C [15]: 93.4%
- viability, T/C [16]: 76.6%
- viability, T/C (second compound 1 µM, first compound 3.16 µM): 84.5%
- viability, T/C (second compound 1 µM, first compound 10 µM): 59.6%
- viability, T/C [17]: 88.2%
- viability, T/C [18]: 95.8%
- viability, T/C [19]: 86.5%
- viability, T/C [20]: 84.1%
- viability, T/C (second compound 3.16 µM, first compound 3.16 µM): 75.3%
- viability, T/C (second compound 3.16 µM, first compound 10 µM): 60%
- viability, T/C [21]: 99.9%
- viability, T/C [22]: 89.8%
- viability, T/C [23]: 95.3%
- viability, T/C [24]: 76.3%
- viability, T/C (second compound 10 µM, first compound 3.16 µM): 76.8%
- viability, T/C (second compound 10 µM, first compound 10 µM): 51.6%
